In brackets after ≈: the same amount, converted by molar mass. Several values for one entry are separate records, joined by “and”; a condition that tells them apart may be missing. Equal values may be shown once. Read-outs that look alike come from different tables or passages of the source.
Legend:
[1] = target: p97 ATPase (Homo sapiens, UniProt P55072); experiment: p97 ATPase assay; assay type: biochemical; settings: for IC50: triplicate, mean ±SD
[2] = tested on: Ub^G76V–GFP (p97-dependent reporter); experiment: Ub^G76V–GFP reporter degradation assay, dual reporter HeLa cell line; assay type: cell-based; settings: read-out: IC50 Ub^G76V–GFP, triplicate, mean ±SD
[3] = tested on: HCT15; experiment: Cytotoxicity / antiproliferative activity; assay type: cell-based; settings: Homo sapiens
[4] = tested on: ODD-Luc (p97-independent proteasome substrate); experiment: ODD-Luc reporter degradation assay, dual reporter HeLa cell line; assay type: cell-based; settings: Homo sapiens, read-out: IC50 ODD-Luc
[5] = tested on: SW403; experiment: Cytotoxicity / antiproliferative activity; assay type: cell-based; settings: Homo sapiens
[6] = tested on: ubiquitin conjugates; experiment: Ubiquitin conjugate accumulation immunoblot, SW403 cells; settings: 5–10 μM; nuclear plus membrane and cytosolic compartments
[7] = tested on: HMEC, PHMLEB, PHMLER cells; experiment: Cellular viability; assay type: cell-based, human; settings: 24 h, CellTiter-Glo
[8] = Plasma protein binding; assay type: in vitro ADME; settings: mouse
[9] = tested on: NCI 60 cancer cell lines; experiment: NCI 60-cell-line screen; assay type: cell-based; settings: 48 h; for Mean GP: mean of 60 NCI cell lines ±SD
[10] = Plasma protein binding; assay type: in vitro ADME; settings: human
[11] = tested on: poly(ADP-ribose) polymerase (PARP); experiment: PARP cleavage immunoblot, SW403 cells; assay type: cell-based; settings: 2 h
[12] = Hepatic toxicity; assay type: cell-based; settings: human, Fa2N-4 immortalized human hepatocytes
[13] = target: 5-HT5a (Homo sapiens, UniProt P47898); experiment: CNS panel binding; settings: 5HT5a receptor
[14] = target: JAK1 domain1 (Homo sapiens, UniProt P23458); experiment: KiNativ profiling; assay type: binding; settings: 20 μM, Other
[15] = PAMPA; assay type: in vitro ADME; settings: acceptor pH 7.4; for Papp: PAMPA; for PAMPA Pe: in the presence of 20% CH3CN
[16] = tested on: caspases 3 and 7; experiment: Caspase 3 and 7 activity in colon cancer cell lines; assay type: cell-based; settings: multiple colon cancer cell lines; dose- and time-dependent
[17] = target: PIP5K3 (Homo sapiens, UniProt Q9Y2I7); experiment: KiNativ profiling; assay type: binding; settings: 20 μM, ATP
[18] = Hepatic microsome stability; assay type: in vitro ADME; settings: human, liver microsomes
[19] = Plasma stability; assay type: in vitro ADME; settings: mouse
[20] = Aqueous solubility; assay type: physicochemical; settings: aqueous buffer
[21] = Plasma stability; assay type: in vitro ADME; settings: human
[22] = tested on: LC3-II; experiment: Autophagy reporter LC3-II immunoblot; settings: for accumulation of lipidated LC3-II: HEK293, 5 h
[23] = Hepatic microsome stability; assay type: in vitro ADME; settings: mouse, liver microsomes
[24] = tested on: ∼170 kinases; experiment: KiNativ kinase profiling, whole panel, PC3 cell lysate; assay type: binding, Homo sapiens; settings: 20 μM
[25] = HCT-15, 24 h, read-out: Cytotoxicity GI50 HCT15 24 h
[26] = HCT-15, 72 h, read-out: Cytotoxicity GI50 HCT15 72 h
[27] = SW-403, 24 h, read-out: Cytotoxicity GI50 SW403 24 h
[28] = SW-403, 72 h, read-out: Cytotoxicity GI50 SW403 72 h

Sequence of p97 ATPase (P55072 whole entry): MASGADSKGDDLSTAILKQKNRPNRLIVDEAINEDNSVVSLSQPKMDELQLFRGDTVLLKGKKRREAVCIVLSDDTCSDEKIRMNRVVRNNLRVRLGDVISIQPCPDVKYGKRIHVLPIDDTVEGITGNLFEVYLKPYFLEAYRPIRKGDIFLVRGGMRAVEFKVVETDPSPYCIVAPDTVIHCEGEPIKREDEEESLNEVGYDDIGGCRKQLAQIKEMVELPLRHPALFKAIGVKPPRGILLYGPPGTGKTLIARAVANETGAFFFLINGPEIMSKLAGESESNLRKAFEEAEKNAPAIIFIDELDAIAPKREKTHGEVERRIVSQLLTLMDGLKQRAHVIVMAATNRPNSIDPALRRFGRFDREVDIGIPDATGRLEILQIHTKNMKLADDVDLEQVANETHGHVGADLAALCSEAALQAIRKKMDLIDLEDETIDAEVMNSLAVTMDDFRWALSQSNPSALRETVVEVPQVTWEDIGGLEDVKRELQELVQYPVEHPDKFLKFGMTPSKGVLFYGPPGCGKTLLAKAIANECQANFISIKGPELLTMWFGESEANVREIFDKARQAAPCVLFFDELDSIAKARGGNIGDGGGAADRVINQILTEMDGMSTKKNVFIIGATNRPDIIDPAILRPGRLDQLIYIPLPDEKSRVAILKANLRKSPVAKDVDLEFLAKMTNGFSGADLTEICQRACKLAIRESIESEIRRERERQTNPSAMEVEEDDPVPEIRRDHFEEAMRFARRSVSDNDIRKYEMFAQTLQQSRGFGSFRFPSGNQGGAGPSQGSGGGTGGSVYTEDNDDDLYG
Sequence of PIP5K3 (Q9Y2I7 whole entry): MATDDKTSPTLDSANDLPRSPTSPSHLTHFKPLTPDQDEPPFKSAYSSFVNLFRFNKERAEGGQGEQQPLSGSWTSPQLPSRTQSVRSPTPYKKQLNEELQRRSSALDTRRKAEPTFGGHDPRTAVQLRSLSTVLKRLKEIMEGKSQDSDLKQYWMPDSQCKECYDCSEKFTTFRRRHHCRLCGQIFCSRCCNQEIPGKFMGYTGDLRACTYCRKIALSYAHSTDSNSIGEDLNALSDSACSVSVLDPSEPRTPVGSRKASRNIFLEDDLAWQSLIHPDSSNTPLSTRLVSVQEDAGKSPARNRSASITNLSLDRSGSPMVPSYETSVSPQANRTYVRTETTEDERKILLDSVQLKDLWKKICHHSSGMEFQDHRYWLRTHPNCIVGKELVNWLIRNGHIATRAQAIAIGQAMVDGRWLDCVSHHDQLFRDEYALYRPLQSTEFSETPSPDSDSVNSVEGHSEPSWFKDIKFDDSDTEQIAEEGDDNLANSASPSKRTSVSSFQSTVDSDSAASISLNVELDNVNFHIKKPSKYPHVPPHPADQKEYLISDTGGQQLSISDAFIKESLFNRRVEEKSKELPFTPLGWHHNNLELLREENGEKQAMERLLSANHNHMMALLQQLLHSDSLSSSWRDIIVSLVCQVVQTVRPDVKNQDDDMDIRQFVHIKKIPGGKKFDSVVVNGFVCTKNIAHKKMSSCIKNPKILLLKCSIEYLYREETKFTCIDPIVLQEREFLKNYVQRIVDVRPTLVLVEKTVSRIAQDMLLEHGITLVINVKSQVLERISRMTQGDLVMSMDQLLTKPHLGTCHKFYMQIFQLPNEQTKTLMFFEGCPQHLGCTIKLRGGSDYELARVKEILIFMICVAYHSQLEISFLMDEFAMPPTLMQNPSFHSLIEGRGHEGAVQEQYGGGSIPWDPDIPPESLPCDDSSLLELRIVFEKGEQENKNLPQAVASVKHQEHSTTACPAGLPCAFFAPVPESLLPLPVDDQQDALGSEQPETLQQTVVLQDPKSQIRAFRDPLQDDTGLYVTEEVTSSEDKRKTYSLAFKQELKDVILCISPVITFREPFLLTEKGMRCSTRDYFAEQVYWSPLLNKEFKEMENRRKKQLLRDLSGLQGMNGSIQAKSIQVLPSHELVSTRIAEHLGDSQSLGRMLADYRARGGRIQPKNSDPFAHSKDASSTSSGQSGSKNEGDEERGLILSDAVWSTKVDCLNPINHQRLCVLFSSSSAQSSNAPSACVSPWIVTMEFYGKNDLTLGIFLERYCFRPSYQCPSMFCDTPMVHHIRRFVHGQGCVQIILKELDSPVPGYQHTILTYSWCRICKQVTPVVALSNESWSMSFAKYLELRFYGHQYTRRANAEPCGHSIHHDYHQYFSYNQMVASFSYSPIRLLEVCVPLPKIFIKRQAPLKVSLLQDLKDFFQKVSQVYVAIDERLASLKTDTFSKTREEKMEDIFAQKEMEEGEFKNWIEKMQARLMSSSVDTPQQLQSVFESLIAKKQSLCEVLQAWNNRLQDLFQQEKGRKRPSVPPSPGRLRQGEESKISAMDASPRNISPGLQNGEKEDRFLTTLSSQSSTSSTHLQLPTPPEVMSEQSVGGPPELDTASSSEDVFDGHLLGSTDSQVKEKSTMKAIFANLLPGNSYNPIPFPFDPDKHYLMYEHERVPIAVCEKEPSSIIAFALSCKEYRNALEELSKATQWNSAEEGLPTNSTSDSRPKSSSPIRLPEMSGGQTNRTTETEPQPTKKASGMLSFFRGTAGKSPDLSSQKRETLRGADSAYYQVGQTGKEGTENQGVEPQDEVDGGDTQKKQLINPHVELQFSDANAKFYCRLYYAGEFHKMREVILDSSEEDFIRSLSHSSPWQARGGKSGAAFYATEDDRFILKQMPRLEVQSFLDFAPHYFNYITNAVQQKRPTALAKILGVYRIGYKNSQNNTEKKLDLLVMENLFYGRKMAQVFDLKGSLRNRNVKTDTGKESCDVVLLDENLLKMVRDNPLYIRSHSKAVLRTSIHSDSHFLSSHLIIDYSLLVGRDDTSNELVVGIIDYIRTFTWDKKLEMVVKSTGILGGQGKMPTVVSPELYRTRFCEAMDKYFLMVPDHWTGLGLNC
Sequence of 5-HT5a (P47898 whole entry, species assumed, the tested form may be a part): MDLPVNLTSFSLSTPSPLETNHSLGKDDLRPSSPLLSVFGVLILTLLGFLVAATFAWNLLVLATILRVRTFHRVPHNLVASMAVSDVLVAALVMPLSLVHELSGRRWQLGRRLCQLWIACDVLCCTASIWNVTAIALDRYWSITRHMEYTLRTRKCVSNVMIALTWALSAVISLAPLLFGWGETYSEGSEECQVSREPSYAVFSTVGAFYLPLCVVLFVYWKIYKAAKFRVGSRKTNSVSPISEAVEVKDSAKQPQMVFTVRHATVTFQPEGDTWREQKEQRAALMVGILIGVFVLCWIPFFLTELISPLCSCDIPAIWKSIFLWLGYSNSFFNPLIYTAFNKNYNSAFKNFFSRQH
Sequence of JAK1 domain1 (P23458 whole entry, the tested form may be a part): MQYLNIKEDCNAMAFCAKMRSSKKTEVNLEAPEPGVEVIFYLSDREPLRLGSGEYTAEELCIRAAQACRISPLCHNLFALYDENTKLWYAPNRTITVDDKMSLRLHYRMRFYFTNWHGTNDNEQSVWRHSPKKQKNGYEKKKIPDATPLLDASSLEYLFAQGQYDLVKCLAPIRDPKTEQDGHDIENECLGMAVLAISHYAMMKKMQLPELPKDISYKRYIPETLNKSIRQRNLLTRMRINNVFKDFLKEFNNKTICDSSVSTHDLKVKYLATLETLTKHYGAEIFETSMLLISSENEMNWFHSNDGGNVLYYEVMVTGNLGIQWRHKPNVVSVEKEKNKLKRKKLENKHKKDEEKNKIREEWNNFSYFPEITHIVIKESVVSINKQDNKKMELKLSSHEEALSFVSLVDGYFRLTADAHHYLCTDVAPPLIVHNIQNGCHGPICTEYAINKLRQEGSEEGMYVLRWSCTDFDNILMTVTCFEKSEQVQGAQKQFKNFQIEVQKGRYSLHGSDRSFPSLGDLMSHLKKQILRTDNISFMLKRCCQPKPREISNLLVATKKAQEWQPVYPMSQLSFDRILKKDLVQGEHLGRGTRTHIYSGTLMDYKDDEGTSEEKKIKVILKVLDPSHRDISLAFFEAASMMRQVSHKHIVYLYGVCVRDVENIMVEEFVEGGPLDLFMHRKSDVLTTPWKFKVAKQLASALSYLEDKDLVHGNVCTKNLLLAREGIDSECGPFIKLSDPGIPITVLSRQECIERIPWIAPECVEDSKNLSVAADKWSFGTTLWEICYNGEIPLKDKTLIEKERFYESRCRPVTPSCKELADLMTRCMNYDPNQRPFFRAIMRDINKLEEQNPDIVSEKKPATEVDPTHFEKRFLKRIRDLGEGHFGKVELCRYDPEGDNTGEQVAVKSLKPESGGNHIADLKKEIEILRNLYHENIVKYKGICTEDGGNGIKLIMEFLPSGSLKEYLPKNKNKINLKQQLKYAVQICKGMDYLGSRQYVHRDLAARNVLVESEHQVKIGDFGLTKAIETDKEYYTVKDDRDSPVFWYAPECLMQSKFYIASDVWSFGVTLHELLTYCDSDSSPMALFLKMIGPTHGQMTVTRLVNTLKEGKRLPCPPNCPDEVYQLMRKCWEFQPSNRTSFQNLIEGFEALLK

2-(2-Amino-5-bromo-1H-benzo[d]imidazol-1-yl)-N-benzyl-8-methoxyquinazolin-4-amine and 2-(2-Amino-6-bromo-1H-benzo[d]imidazol-1-yl)-N-benzyl-8-methoxyquinazolin-4-amine [compound 24]
IC50 ([1]; read-out: IC50 ATPase): 0.8 ± 0.3 µM
IC50 [2]: 30 ± 10 µM

2-(2-Amino-5-chloro-1H-benzo[d]imidazol-1-yl)-N-benzyl-8-methoxyquinazolin-4-amine and 2-(2-Amino-6-chloro-1H-benzo[d]imidazol-1-yl)-N-benzyl-8-methoxyquinazolin-4-amine [compound 23]
IC50 ([1]; read-out: IC50 ATPase): 0.7 ± 0.3 µM
IC50 [2]: 31 ± 7 µM

2-(2-Amino-5-fluoro-1H-benzo[d]imidazol-1-yl)-N-benzyl-8-methoxyquinazolin-4-amine and 2-(2-Amino-6-fluoro-1H-benzo[d]imidazol-1-yl)-N-benzyl-8-methoxyquinazolin-4-amine [compound 30]
IC50 ([1]; read-out: IC50 ATPase): 0.08 ± 0.02 µM
IC50 [2]: 6.8 ± 1 µM

2-(2-Amino-5-methoxy-1H-benzo[d]imidazol-1-yl)-N-benzyl-8-methoxyquinazolin-4-amine and 2-(2-Amino-6-methoxy-1H-benzo[d]imidazol-1-yl)-N-benzyl-8-methoxyquinazolin-4-amine [compound 26]
IC50 ([1]; read-out: IC50 ATPase): 0.48 ± 0.09 µM
IC50 [2]: 0.96 ± 0.2 µM

2-(2-Amino-5-methyl-1H-benzo[d]imidazol-1-yl)-N-benzyl-8-methoxyquinazolin-4-amine and 2-(2-Amino-6-methyl-1H-benzo[d]imidazol-1-yl)-N-benzyl-8-methoxyquinazolin-4-amine [compound 25]
IC50 ([1]; read-out: IC50 ATPase): 0.24 ± 0.06 µM
IC50 [2]: 2.5 ± 0.5 µM

c1ccc(CNc2nc(NCc3ccccc3)c3ccccc3n2)cc1 [DBeQ, N^2,N^4-dibenzylquinazoline-2,4-diamine]
GI50 [3, 25]: 3.2 ± 1 µM
GI50 [3, 26]: 1.8 ± 0.7 µM
IC50 ([1]; IC50 ATPase): 1.6 µM
IC50 [4]: 56 ± 14 µM
GI50 [5, 27]: 2.2 ± 0.6 µM
GI50 [5, 28]: 1.4 ± 0.5 µM
accumulation of ubiquitin conjugates [6]: caused accumulation of ubiquitin conjugates
potency on normal vs immortalized and tumorigenic cell lines [7]: slightly greater potency toward the immortalized and transformed cells

COc1cccc2c(NCc3ccccc3)nc(-n3c(N)nc4ccccc43)nc12 [ML240, 2-(2-Amino-1H-benzo[d]imidazol-1-yl)-N-benzyl-8-methoxyquinazolin-4-amine]
fraction unbound at 1 μM [8]: 0.0027
fraction unbound at 10 μM [8]: 0.0037
Highest GP ([9]; least inhibited individual cancer cell line): −43.8 (HS 578T) %
Mean GP [9]: −84.5±15.5%
Lowest GP ([9]; most inhibited individual cancer cell line): −100.0 (OVCAR-4) %
fraction unbound at 1 μM [10]: 0.0047
fraction unbound at 10 μM [10]: 0.0029
GI50 [3, 25]: 0.76 ± 0.14 µM
GI50 [3, 26]: 0.54 ± 0.19 µM
Ki [1]: 0.22 µM
mechanism of p97 inhibition with respect to ATP [1]: competitively
IC50 ([1]; IC50 ATPase): ~0.1 µM and 0.1 µM
cleavage of PARP [11]: induced efficient cleavage
CC50 [12]: 8.5 µM
Ki [13]: 2.5 µM
% Inhibition [14]: > 50%
Papp ([15]; PAMPA Pe, donor pH 5.0): 357 ×10⁻⁶ cm/s
Papp ([15]; PAMPA Pe, donor pH 6.2): 628 ×10⁻⁶ cm/s
Papp ([15]; pH 7.4, PAMPA Pe, donor pH 7.4): < 60.3 ×10⁻⁶ cm/s
induction of caspase activity [16]: induced caspase activity
IC50 [4]: 28 ± 7 µM
% Inhibition [17]: > 50%
GI50 [5, 27]: 0.5 ± 0.07 µM
GI50 [5, 28]: 0.5 ± 0.1 µM
remaining at 1 h [18]: 54.3%
accumulation of ubiquitin conjugates [6]: caused accumulation of ubiquitin conjugates
remaining at 3 h [19]: 100%
solubility ([20]; pH 5, aqueous buffer): 0.35 µg/mL (≈ 0.883 µM)
solubility ([20]; pH 6.2, aqueous buffer): 0.33 µg/mL (≈ 0.832 µM)
solubility ([20]; pH 7.4, aqueous buffer): 0.27 µg/mL (≈ 0.681 µM)
remaining at 3 h [21]: 100%
potency on normal vs immortalized and tumorigenic cell lines [7]: slightly greater potency toward the immortalized and transformed cells
time of LC3-II accumulation after addition of drug ([22]; HCT116, 10 μM, as early as): 10 min
accumulation of lipidated LC3-II [22]: induced accumulation
remaining at 1 h [23]: 0.63%

c1ccc(CNc2nc(N3CCOc4ccccc43)nc3c2CCCC3)cc1 [ML241, 2-(2H-Benzo[b][1,4]oxazin-4(3H)-yl)-N-benzyl-5,6,7,8-tetrahydroquinazolin-4-amine]
fraction unbound at 1 μM [8]: 0.0005
fraction unbound at 10 μM [8]: 0.0009
Mean GP [9]: 92.8±22.8%
fraction unbound at 1 μM [10]: 0.0003
fraction unbound at 10 μM [10]: 0.0005
GI50 [3, 25]: 53 ± 5 µM
GI50 [3, 26]: 13 ± 4 µM
Ki [1]: 0.35 µM
mechanism of p97 inhibition with respect to ATP [1]: competitively
IC50 ([1]; IC50 ATPase): ~0.1 µM and 0.1 µM
CC50 [12]: > 50 µM
PAMPA Pe ([15]; donor pH 5.0): 1164 ×10⁻⁶ cm/s
PAMPA Pe ([15]; donor pH 6.2): 2504 ×10⁻⁶ cm/s
PAMPA Pe ([15]; donor pH 7.4): 2278 ×10⁻⁶ cm/s
IC50 [4]: 46 ± 8 µM
GI50 [5, 27]: 33 ± 7 µM
GI50 [5, 28]: 12 ± 3 µM
remaining at 1 h [18]: 19%
accumulation of ubiquitin conjugates [6]: caused accumulation of ubiquitin conjugates
remaining at 3 h [19]: 100%
solubility ([20]; pH 5, aqueous buffer): 28 µg/mL (≈ 75.2 µM)
solubility ([20]; pH 6.2, aqueous buffer): 0.13 µg/mL (≈ 0.349 µM)
solubility ([20]; pH 7.4, aqueous buffer): 0.2 µg/mL (≈ 0.537 µM)
remaining at 3 h [21]: 100%
accumulation of lipidated LC3-II [22]: lack of effect
inhibition of labeling across the panel [24]: did not appreciably inhibit labeling
remaining at 1 h [23]: 2.57%

CO/C1=C\C(C)=C\[C@@H](C)[C@@H](O)[C@@H](C)C/C(C)=C/C=C/[C@H](OC)[C@@H]([C@@H](C)[C@@H](O)[C@H](C)[C@@]2(O)C[C@@H](O)[C@H](C)[C@@H](C(C)C)O2)OC1=O [bafilomycin, reference compound]
potency on normal vs immortalized and tumorigenic cell lines [7]: equal potency

CC(C)C[C@H](NC(=O)[C@H](Cc1ccccc1)NC(=O)c1cnccn1)B(O)O [bortezomib, reference compound]
potency on normal vs immortalized and tumorigenic cell lines [7]: equal potency

COc1cccc2c(NCc3ccccc3)nc(N3CCOc4ccccc43)nc12 [compound 38, 2-(2H-Benzo[b][1,4]oxazin-4(3H)-yl)-N-benzyl-8-methoxyquinazolin-4-amine]
GI50 [3, 25]: 25 ± 5 µM
GI50 [3, 26]: 12 ± 3 µM
IC50 [4]: > 20 µM
GI50 [5, 27]: 43 ± 11 µM
GI50 [5, 28]: 13 ± 4 µM

COc1cccc2c(NCc3ccc(F)cc3)nc(N3CCOc4ccccc43)nc12 [compound 40, 2-(2H-Benzo[b][1,4]oxazin-4(3H)-yl)-N-(4-fluorobenzyl)-8-methoxyquinazolin-4-amine]
GI50 [3, 25]: 27 ± 4 µM
GI50 [3, 26]: 8.9 ± 2.3 µM
IC50 [4]: > 20 µM
GI50 [5, 27]: 21 ± 6 µM
GI50 [5, 28]: 9.4 ± 2.6 µM

CCCCNc1ncc2c(-c3ccc(F)cc3)nn(C[C@H]3CC[C@H](N)CC3)c2n1 [pyrazolopyrimidine, reference compound]
number of protein kinases (domains) with >50% inhibition of labeling [24]: 56

From publication PMC3662613 (Chemmedchem, 2013)
